Calls of active or inactive are those of the source. The rule behind the calls is not given here.

Assay [1] addresses T1, Patatin-like phospholipase domain-containing protein 2 (Mus musculus) (UniProt Q8BJ56).
T1 sequence (whole entry): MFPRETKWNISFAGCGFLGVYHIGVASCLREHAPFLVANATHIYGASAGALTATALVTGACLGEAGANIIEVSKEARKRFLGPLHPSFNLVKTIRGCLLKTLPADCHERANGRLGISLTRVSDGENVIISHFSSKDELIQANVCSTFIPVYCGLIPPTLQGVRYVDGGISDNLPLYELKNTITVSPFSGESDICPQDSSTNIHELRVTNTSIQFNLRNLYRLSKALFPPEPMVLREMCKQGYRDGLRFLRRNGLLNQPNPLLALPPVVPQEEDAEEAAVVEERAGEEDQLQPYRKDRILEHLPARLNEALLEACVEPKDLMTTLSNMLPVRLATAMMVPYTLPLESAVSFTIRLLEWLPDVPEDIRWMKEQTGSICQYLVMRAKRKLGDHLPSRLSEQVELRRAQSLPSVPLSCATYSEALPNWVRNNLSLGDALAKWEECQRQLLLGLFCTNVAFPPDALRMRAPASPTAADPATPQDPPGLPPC
Briefly: Inhibition of murine ATGL at 200 uM relative to control.

Assay [2] deals with T2, Patatin-like phospholipase domain-containing protein 2 (Mus musculus, UniProt Q8BJ56).
T2 sequence (Q8BJ56 whole entry): T1 sequence (whole entry)
Description: Inhibition of murine ATGL.

A short description of assay [3]: In vivo inhibition of ATGL in 12 hrs fasted mouse assessed as reduction in circulating triacylglycerol level at 200 uM administered via oral gavage measured after 8 hrs. In kind it is functional.
For assay [4], the target named is T1, Patatin-like phospholipase domain-containing protein 2 (Mus musculus). Description: Inhibition of recombinant murine ATGL expressed in Escherichia coli XL-1 lysates at 200 uM relative to control. Format: subcellular.
Assay [5] shares this target. Description: Inhibition of murine ATGL expressed in COS-7 cells at 200 uM relative to control. Format: cell-based.
Assay [6] has as its target T2, Patatin-like phospholipase domain-containing protein 2. Description: Inhibition of murine ATGL expressed in COS-7 cells. Format: cell-based.
A short description of assay [7]: In vivo inhibition of ATGL in ad libitum fed mouse assessed as reduction in circulating glycerol level at 200 uM administered via oral gavage measured after 8 hrs. Format: functional.
The nature of assay [8]: In vivo inhibition of ATGL in ad libitum fed mouse assessed as reduction in circulating fatty acid level at 200 uM administered via oral gavage measured after 8 hrs. In kind it is functional.
In another assay the test system is Mus musculus. Description: In vivo inhibition of ATGL in 12 hrs fasted mouse assessed as reduction in circulating TG level at 200 uM administered via oral gavage in presence of poloxamer measured after 8 hrs. Format: functional, organism-based.
Assay [9] can be described thus: In vivo inhibition of ATGL in 12 hrs fasted mouse assessed as reduction in circulating glycerol level at 200 uM administered via oral gavage measured after 8 hrs. Format: functional.
A short description of assay [10]: In vivo inhibition of ATGL in 12 hrs fasted mouse assessed as reduction in circulating fatty acid level at 200 uM administered via oral gavage measured after 8 hrs. Format: functional.
A short description of assay [11]: Inhibition of isoproterenol-stimulated lipolysis in ATGL-ko mouse at 200 uM, ip after 2 hrs. In kind it is functional.
A short description of assay [12]: In vivo inhibition of ATGL in mouse assessed as decrease in plasma fatty acid release at 200 uM, ip measured up to 8 hrs. In kind it is functional. As to conditions: time hrs <=8.
The target of assay [13] is T2, Patatin-like phospholipase domain-containing protein 2. Description: Inhibition of recombinant murine ATGL expressed in Escherichia coli XL-1 lysates. Format: subcellular.

On to `CCCCOC(=O)c1nn(-c2ccc(OCC)cc2)cc1O`, for which the inhibition in assay [1] was 74%. The compound further gave an IC50 in [2] of 100 µM.
For `CCOc1ccc(-n2cc(O)c(C(=O)O)n2)cc1` the same measures were 15% and > 200 µM.
For `CCOC(=O)c1nn(-c2ccc(OCC)cc2)cc1O` the same measures were 67% and 120 µM.
For `CCOc1ccc(-n2cc(O)c(C(=O)OC)n2)cc1` the same measures were 64% and 130 µM.
For `CCOC(=O)c1nn(-c2ccc(OCC)cc2)cc1OC`, in [1], the inhibition came to 63%. This compound also had an IC50 in [2] of 90 µM.
Regarding `CN(C)C(=O)Nc1cccc(-c2ccc(N(C)C)cc2)c1`, the inhibition in vivo at 200 µM in assay [3] is 37%; in [7], 23%; in [8] it was 27%; in [9] it was 26%; in assay [10], 27%. The values for the inhibition in assay [4] and in assay [5] were 99% and 98%, respectively. The IC50 in [6] is < 5 µM. In the assay with Mus musculus, the inhibition result is “Active”.
`CCOC(=O)c1cccc(-c2ccc(N(C)C)cc2)c1`: in assay [5], the inhibition came to 87%. The IC50 in assay [6] worked out at 40 µM. Moreover, the inhibition in vivo at 200 µM was 60% in assay [11] and 40% in assay [12].
In the case of `CCOC(=O)c1ccn(-c2ccc(OCC)cc2)n1`, the inhibition in assay [1] was 89%.
Regarding `CCOC(=O)c1cccc(-c2ccc(CN3CCN(C)CC3)cc2)c1`, the inhibition is 32% in assay [4] and 26% in assay [5]. The half-inhibitory concentration (IC50) in [6] and in assay [13] was > 200 µM each time.

A word on the inhibition: it is the percentage by which the read-out fell short of the control. By IC50 is commonly meant the concentration needed to halve the response being measured. The inhibition in vivo is the drop in the measured response relative to a control, in per cent.

The values are drawn from ChEMBL document CHEMBL4725289, “Structure-activity relationship studies for the development of inhibitors of murine adipose triglyceride lipase (ATGL)” (Bioorg Med Chem, 2020).
